Patent publication US4596873A, “1,4,5,6,7,8-Hexahydro-2-alkyl-4-aryl-5-oxo-1,7-naphthyridine-3-carboxyl ic acid aromatic esters and pharmaceutically acceptable acid addition salts thereof useful as antihypertensive agents” (American Home Products Corporation, priority 1985, dated 1986)

Experiments:
[1] = test system: arterial actin-myosin interactions; assay: inhibition of superprecipitation (antagonism of arterial actin-myosin interaction); format: biochemical; details: six minute time-point, mean±SEM
Description: (§1) The data reported herein was obtained at a six minute time-point rather than the 1.5, 5 and 12 minute time points indicated in the superprecipitation assay of the Silver et al. paper.
(§2) The following examples illustrate the preparation of a representative number of compounds of this invention. After each example, and Ca^+2 antagonist activity of the compound is presented in terms of percent relaxation of aortic tissue (P.R.) at 10^-5 M concentration. […] Inhibition of superprecipitation (Antag. of Actin-Myosin interaction) is expressed as percent inhibition (mean±standard error of the mean for at least 3 separate experiments) at a compound concentration. In the same manner, inhibition of myosin light chain phosphorylation (Antag. of MLCP) is expressed as a percent inhibition at a compound concentration. Similarly, the antihypertensive activity is reported in terms of millimeters mercury (mmHg) systolic blood pressure (B.P.) reduction at the stated time post 50 mg/kg oral dosing or other dosing as indicated.

[2] = test system: Ca^+2 -calmodulin dependent myosin light chain phosphorylation; assay: inhibition of Ca^+2-calmodulin dependent myosin light chain phosphorylation (MLCP); format: biochemical
Description: as §1, §2

[3] = test system: isolated paced intact rabbit atria; assay: negative inotropic (cardiac depressant) effect in isolated paced intact rabbit atria; format: cell-based
Description: The potential for detrimental cardiac depressant (negative inotropic) effects of the compounds of this invention was assessed in isolated paced intact rabbit atria. Left and right atria (with nodal tissue excised) were suspended vertically in a jacketed (30° C.) organ bath containing 50 ml of PSS and aerated with 95% O2 /5% CO2. Muscles (N=5-9/compound) were stimulated at a frequency of 3 Hz with a WPI stimulator for a 60 minute equilibration period. Changes in isometric force were recorded as described for the aortic smooth muscle experiments,supra. Following equilibration, the test compound (or as a control, the ethanol vehicle) was added to the organ bath in a cumulative manner from doses ranging from 10^-9 M to 10^-5 M (10^-5 M was the maximum dose which could be attained due to the depressant effect of ethanol) and effects on developed isometric force were determined.
as §2

[4] = test system: spontaneously hypertensive rats; assay: decrease in systolic blood pressure of spontaneously hypertensive rats; format: in vivo, rat

Structure (SMILES) | inhibition of superprecipitation (Antag. of Actin-Myosin) ([1]; 50 μM) [%] | inhibition of superprecipitation (Antag. of Actin-Myosin) ([1]; 100 μM) [%] | inhibition of myosin light chain phosphorylation (Antag. of MLCP) ([2]; 50 μM) [%] | inhibition of myosin light chain phosphorylation (Antag. of MLCP) ([2]; 100 μM) [%] | systolic blood pressure (B.P.) reduction ([4]; 25 mg/kg, 1.5 hours) [mmHg] | systolic blood pressure (B.P.) reduction ([4]; 25 mg/kg, 4 hours) [mmHg] | cardiac depression / negative inotropism (in words) [3] | other results
CC1=C(C(=O)OCCOc2ccccc2)C(c2c(F)c(F)c(F)c(F)c2F)C2=C(CNCC2=O)N1 (single isomer, unassigned; (+)) [Example 4, (+)-1,4,5,6,7,8-Hexahydro-2-methyl-5-oxo-4-(pentafluorophenyl)-1,7-naphthyridine-3-carboxylic acid 2-phenoxyethyl ester] | 38 | 71 | 37 | 67 | -58 | -78 | – | IC25 (concentration which produces 25% inhibition of isometric force) ([3]; 3 Hz, cumulative 10^-9 M to 10^-5 M): 800 nM
CC1=C(C(=O)OCCCCOc2ccccc2)C(c2c(F)c(F)c(F)c(F)c2F)C2=C(CNCC2=O)N1 (stereo not shown) [Example 21, 1,4,5,6,7,8-Hexahydro-2-methyl-5-oxo-4-(pentafluorophenyl)-1,7-naphthyridine-3-carboxylic acid 4-phenoxybutyl ester] | – | 80 | – | 77 | 0 | -49 | – | –
CC1=C(C(=O)OCCOc2ccccc2)C(c2c(F)ccc(C)c2Cl)C2=C(CNCC2=O)N1 (stereo not shown) [Example 23, 4-(2-chloro-6-fluoro-3-methylphenyl)-1,4,5,6,7,8-hexahydro-2-methyl-5-oxo-1,7-naphthyridine-3-carboxylic acid 2-phenoxyethyl ester] | 23 | 62 | 18 | 56 | -22 | -31 | – | –
CC1=C(C(=O)OCCOc2ccccc2)C(c2c(F)ccc(Cl)c2Cl)C2=C(CNCC2=O)N1 (stereo not shown) [Example 24, 4-(2,3-Dichloro-6-fluorophenyl)-1,4,5,6,7,8-hexahydro-2-methyl-5-oxo-1,7-naphthyridine-3-carboxylic acid 2-phenoxyethyl ester] | 54±3 | 72±1 | 50±2 | 68±1 | -50 | -70 | – | inhibition of superprecipitation (Antag. of Actin-Myosin) ([1]; 25 μM): 9±2%; inhibition of myosin light chain phosphorylation (Antag. of MLCP) ([2]; 25 μM): 8±2%; systolic blood pressure (B.P.) reduction ([4]; 5 mg/kg, 1.5 hours): -17 mmHg; systolic blood pressure (B.P.) reduction ([4]; 5 mg/kg, 4 hours): -26 mmHg; systolic blood pressure (B.P.) reduction ([4]; 10 mg/kg, 1.5 hours): -6 mmHg; systolic blood pressure (B.P.) reduction ([4]; 10 mg/kg, 4 hours): -26 mmHg
COc1ccc(CCN(C)CCCC(C#N)(c2ccc(OC)c(OC)c2)C(C)C)cc1OC (stereo not shown) [Verapamil, reference compound] | – | – | – | – | – | – | direct negative inotropism | –
CCOC(=O)C1=C(C)NC(C)=C(C(=O)OC)C1c1cccc(Cl)c1Cl (stereo not shown) [felodipine] | – | – | – | – | – | – | direct negative inotropism | IC25 ([3]; Oryctolagus cuniculus, 3 Hz, cumulative 10^-9 M to 10^-5 M, read-out: IC25 (concentration which produces 25% inhibition of isometric force)): 800 nM
COC(=O)C1=C(C)NC(C)=C(C(=O)OC)C1c1ccccc1[N+](=O)[O-] [nifedipine, reference compound] | – | – | – | – | – | – | direct negative inotropism | –
CCOC(=O)C1=C(C)NC(C)=C(C(=O)OC)C1c1cccc([N+](=O)[O-])c1 (stereo not shown) [nitrendipine, reference compound] | – | – | – | – | – | – | direct negative inotropism | –
